Assay results taken from PMC3745399, “An NO Donor Approach to Neuroprotective and Procognitive Estrogen Therapy Overcomes Loss of NO Synthase Function and Potentially Thrombotic Risk” (PLoS ONE, 2013).
Where two headings read alike, the source gives them in different places.

Tests used:
ERβ = ERβ (Homo sapiens, UniProt Q92731); test: ER binding affinity by competitive E2 displacement (ERβ)
Protocol: Raloxifene and DMA are structurally related SERMs acting as antagonists of estrogen action in mammary and endometrial cells. […] ER binding affinity was measured by competitive E2 displacement as previously described.

[1] = test system: hippocampal slices from 16-month old male 3×Tg mice; test: LTP in CA1 of hippocampal slices after theta burst stimulation; parameters: species or system mouse; conditions: 3×Tg slices; for enhancement of subsequent theta bursts during LTP induction: 100 nM; for end fEPSP: 100 nM added 30 min prior to TBS, untreated 3×Tg 97.0±6.4%, WT 134.7±10.3%
Protocol: LTP in the CA1 field of the hippocampus is a well-studied cellular model for learning and memory. […] At 16 months, an advanced age at which Alzheimer's-like neuropathology is well developed in these animals, studies on LTP have not previously been reported. Nevertheless, we observed a robust, reproducible deficit in LTP in these aged transgenic mice, with field excitatory post-synaptic potentials (fEPSP) showing an end fEPSP of 97.0±6.4% of baseline at 45 min post-TBS, compared to 134.7±10.3% observed in the wild type (WT) transgenic background controls (Fig. 3A,B).
Figure 3 Reversal of LTP deficit in aged 3×Tg mice by SERMs is GPR30 dependent. LTP was measured after TBS in the CA1 region of hippocampal sections from 16 month male 3×Tg mice or WT controls. Test compounds (SERMs 100 nM; G15 100 nM) were added 30 min prior to TBS. […] (C) Secondary analysis of theta bursts indicate action both during induction and stabilization of LTP, through a GPR30 dependent mechanism.
All experiments used 16-month old male 3×Tg transgenic or age-matched WT background controls. For electrophysiology, mice were rapidly decapitated, and brains were removed into an ice-cold aCSF solution (in mM: NaCl 124, KCl 3.0, KH2PO4 1.25, NaHCO3 25.7, D-glucose 10, L-ascorbate 2.0, MgSO4 2.5, and CaCl2 3.3) and sectioned on a tissue chopper into 400 µm sections. Slices were transported to a 37°C solution of aCSF, continuously bubbled with 95% O2/5% CO2, and allowed to recover at least 60 min before experimentation. After placement of a stimulation electrode in the Schaffer commissural fibers and recording electrodes with 2 M NaCl solution into the stratum radiatum of the CA1 area, stimulus intensity was set to evoke submaximal fEPSP and continuously monitored at 20 s intervals for at least 15 min to establish a stable baseline. SERMs (100 nM) and G15 (100 nM) were prepared fresh in perfusate and started at least 30 min before LTP induction to reach a new baseline after enhancement of basal synaptic transmission was observed. […] Resulting fEPSP was monitored at 20 s intervals for ∼60 min post TBS.

isolated rings of aortae = test: Aortic ring relaxation; parameters: species or system rat
Protocol: Isolated rings of aortae from male Sprague-Dawley rats (250–300 g) were prepared for isometric tension measurements and were equilibrated for 1 h at an optimal resting tension of 10 mN. Tissues were contracted submaximally with 0.3 µM phenylepinephrine, and after 10–15 m cumulative concentration-response curves for SERMs (0.01–30 µM) were obtained. Some aortic ring preparations were denuded of the endothelium, or were treated with 100 µM L-NAME, prior to assessment of SERM-induced relaxation responses.

[2] = NO levels (NOx) in hippocampus and plasma by chemiluminescence; format: in vivo, mouse; conditions: 2 mg/kg i.p., 1 h; for elevation of NOx in hippocampus / elevation of NOx in plasma: WT mice
Protocol: Brain and plasma NO levels were assessed by measuring metabolic oxidation products, NO2 ^−and NO3 ^− (NOx), using chemiluminescence detection.
Figure 5 Effects of SERM and NO-SERMon NO levels in plasma and brain of WT and eNOS (−/−) mice. Levels of NO were assessed by measuring breakdown products 1 h after i.p. injection of SERMs (2 mg/kg) using chemiluminescence detection.
All experiments were performed on 6–8 month male C57B1/6 mice (Charles River Laboratory) or eNOS(−/−) animals. Animals were injected (i.p.) at various time points before sacrifice at the doses specified. After euthanasia via CO2, plasma was collected, and cortices and hippocampi were collected after PBS perfusion and stored at −80°C. Tissue samples were weighed and extracted with methanol. Plasma samples were extracted with cold acetonitrile. Quantitative analysis of drug concentrations in plasma and brain used internal standards spiked into plasma and brain homogenates before liquid extraction with acetonitrile or methanol, and separation and measurement was performed with LC-MS/MS tandem mass spectrometry. The supernatant (deproteinized) was analyzed by chemiluminescence with SIEVERS 280i nitric oxide analyzer.

[3] = Anticoagulation: PT and aPTT after i.p. dosing; format: in vivo, mouse; conditions: for PT / aPTT / anticoagulant effect (PT, aPTT) at 3 h: C57Bl/6 mice, 2 mg/kg i.p.; for PT / aPTT: 1 h; for anticoagulation (PT and aPTT) with NOS blockade: L-NAME 50 mg/kg 30 min prior to collection, SERM 2 mg/kg 1 h prior
Protocol: Figure 6 Effect of SERMs and NO-SERM on […] clotting cascades. Blood was collected by cardiac puncture and PTT and aPTT were determined 1 or 3 h after i.p. drug administration (2 mg/kg).
SERMs were injected (i.p.) into 6–8 month old male C57Bl/6 mice 1 h before blood collection, and L-NAME was injected (i.p.) 30 min before blood collection. The mouse was sedated by exposing it to CO2 until unconscious and blood was collected in 4.5 mL BD Vacutainer Glass Evacuated Blood Collection Tubes (with 0.105 M buffered sodium citrate) by cardiac puncture. The blood samples were centrifuged at 300 g for 30 min to separate the plasma from the blood, and then 200 uL of plasma was taken from each sample and the PT and aPTT were measured using an ACL 7000 Coagulation Analyzer. The analyzer injects […] of PT-fibrinogen (lyophilized rabbit brain calcium thromboplastin with stabilizers, polybrene, buffer and preservatives) to 75 µL of plasma sample to measure the PT, and 75 µL of synthAFAX (0.025 M)+100 µL of CaCl2 (0.02 M) were added to 75 µL of plasma to measure aPTT. The analysis was at 37°C using a photo sensor at λ = 671 nm.

ERβ, sequence (Q92731 whole entry, species assumed): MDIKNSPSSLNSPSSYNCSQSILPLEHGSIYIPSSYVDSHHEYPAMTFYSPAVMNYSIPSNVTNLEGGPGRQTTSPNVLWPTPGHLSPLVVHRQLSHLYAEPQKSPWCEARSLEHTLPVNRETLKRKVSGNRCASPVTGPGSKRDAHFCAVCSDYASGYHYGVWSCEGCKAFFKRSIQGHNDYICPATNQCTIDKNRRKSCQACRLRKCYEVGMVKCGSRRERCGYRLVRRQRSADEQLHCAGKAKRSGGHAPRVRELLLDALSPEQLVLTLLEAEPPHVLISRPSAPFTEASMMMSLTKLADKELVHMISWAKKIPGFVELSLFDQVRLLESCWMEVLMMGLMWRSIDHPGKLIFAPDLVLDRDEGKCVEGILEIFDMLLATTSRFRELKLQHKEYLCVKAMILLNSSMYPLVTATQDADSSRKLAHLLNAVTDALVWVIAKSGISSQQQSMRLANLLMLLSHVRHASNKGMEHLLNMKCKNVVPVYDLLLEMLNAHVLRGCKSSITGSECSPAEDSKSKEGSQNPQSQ

| SMILES | IC50 (ERβ) [nM] | enhancement of subsequent theta bursts during LTP induction [1] | end fEPSP [1] | end fEPSP with G15 ([1]; DMA 100 nM + G15 100 nM) [%] | effect on LTP with ODQ (sGC inhibitor) ([1]; ODQ 10 nM, variable interburst interval, preliminary) | efficacy (maximal relaxation) (isolated rings of aortae; intact aortic rings) [% relaxation] | EC50 (isolated rings of aortae; intact aortic rings contracted with phenylepinephrine, mean, S.D., read-out: EC50 for relaxation) [nM] | efficacy after endothelium removal or NOS inhibition (isolated rings of aortae; physical removal of the endothelium or L-NAME) | elevation of NOx in hippocampus [2] | elevation of NOx in plasma [2] | PT [3] | aPTT [3] | anticoagulant effect (PT, aPTT) at 3 h [3] | anticoagulation (PT and aPTT) with NOS blockade [3] | EC50 (isolated rings of aortae; endothelium-denuded tissues, read-out: EC50 for relaxation, endothelium-denuded) [nM] | potency relative to DMA (isolated rings of aortae; intact aortic rings) | EC50 (isolated rings of aortae; intact aortic rings, read-out: EC50 for relaxation) [nM] | EC50 (isolated rings of aortae; tissues treated with L-NAME 100 µM, read-out: EC50 for relaxation, L-NAME) [nM] | NOx in hippocampus, eNOS(−/−) ([2]; eNOS(−/−) mice) | NOx in plasma, eNOS(−/−) ([2]; eNOS(−/−) mice) |
| --- | --- | --- | --- | --- | --- | --- | --- | --- | --- | --- | --- | --- | --- | --- | --- | --- | --- | --- | --- | --- |
| Oc1ccc(-c2sc3cc(O)ccc3c2Oc2ccc(OCCN3CCCCC3)cc2)cc1 [DMA, desmethylarzoxifene] | 9.6 ± 1.9 | augmented | 144.9±8.7 % of baseline | 96.8±7.1 | ODQ blocks effect of DMA on LTP | ~100 | 3500 ± 2500 | significant decrease in the efficacy | greater than twofold elevation | greater than twofold elevation | showed a clear trend | significantly increased aPTT | decreased to that of control samples | did not persist in the presence of NOS blockade |  |  |  |  |  |  |
| O=[N+]([O-])OCCCC1CCN(CCOc2ccc(Oc3c(-c4ccc(O)cc4)sc4cc(O)ccc34)cc2)CC1 [NO-DMA, 3-(1-(2-(4-(6-hydroxy-2-(4-ydroxyphenyl)benzo[b]thiophen-3-yloxy)phenoxy)ethyl)piperidin-4-yl)propyl nitrate] | 24.4 ± 9.6 | augmented | 144.2±5.2 % of baseline |  |  | ~100 |  |  | greater than twofold elevation | greater than twofold elevation | significantly increased PT | significantly increased aPTT | remained significantly higher than control | significantly increased anticoagulation compared to control in both PT and aPTT | 900 ± 690 | at least ten-fold increased potency | 130 ± 90 | 1000 ± 540 | increase NOx significantly, relative to DMA | increase NOx significantly, relative to DMA |
